# US6083944A, “Quinoline-containing α-ketoamide cysteine and serine protease inhibitors” (Cephalon, Inc., priority 1998, dated 2000)
# Biological target: T1, Recombinant human calpain I (Homo sapiens, UniProt P07384)
# T1 construct: made in house
# T1 sequence (P07384 1-714): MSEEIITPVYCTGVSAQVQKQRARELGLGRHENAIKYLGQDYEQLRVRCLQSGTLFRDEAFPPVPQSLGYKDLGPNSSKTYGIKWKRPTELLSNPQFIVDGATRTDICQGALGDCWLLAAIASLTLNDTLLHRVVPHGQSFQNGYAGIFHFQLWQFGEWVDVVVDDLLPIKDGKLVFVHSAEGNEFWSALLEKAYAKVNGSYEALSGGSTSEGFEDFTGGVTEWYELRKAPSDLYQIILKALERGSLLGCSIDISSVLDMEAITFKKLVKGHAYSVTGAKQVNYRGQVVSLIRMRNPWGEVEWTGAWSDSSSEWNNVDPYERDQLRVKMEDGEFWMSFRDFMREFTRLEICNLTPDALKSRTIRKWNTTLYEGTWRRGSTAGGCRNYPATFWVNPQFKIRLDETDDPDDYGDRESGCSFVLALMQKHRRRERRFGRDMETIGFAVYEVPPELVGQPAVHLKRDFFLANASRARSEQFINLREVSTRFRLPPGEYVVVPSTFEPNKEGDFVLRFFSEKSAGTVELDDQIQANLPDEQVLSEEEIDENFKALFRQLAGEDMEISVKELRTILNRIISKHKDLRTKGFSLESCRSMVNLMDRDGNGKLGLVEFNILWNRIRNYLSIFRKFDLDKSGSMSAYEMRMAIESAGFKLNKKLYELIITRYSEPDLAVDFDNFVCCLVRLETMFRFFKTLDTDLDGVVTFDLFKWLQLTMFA
# Experiment: Inhibition of calpain I (Succ-Leu-Tyr-MNA hydrolysis)
# Assay type: biochemical
# Settings: for inhibition at 10 µM: values in parentheses, at 10,000 nM; for Calpain I IC50 ** (value in parentheses: % inhibition): ** explained as 10,000 nM only in footnotes to Tables 2-4
# Experimental: To evaluate inhibitory activity, stock solutions (40 times concentrated) of each compound to be tested were prepared in 100% anhydrous DMSO and 5 μl of each inhibitor preparation was aliquoted into each of three wells of a 96-well plate. Recombinant human calpain I, prepared by the method of Meyer et al. (Biochem. J. 1996, 314: 511-519), was diluted into assay buffer (i.e., 50 mM Tris, 50 mM NaCl, 1 mM EDTA, 1 mM EGTA, and 5 mM β-mercaptoethanol, pH 7.5, including 0.2 mM Succ-Leu-Tyr-MNA), and 175 μl was aliquoted into the same wells containing the independent inhibitor stocks as well as to positive control wells containing 5 μl DMSO, but no compound. To start the reaction, 20 μl of 50 mM CaCl2 in assay buffer was added to all wells of the plate, excepting three, which were used as background signal baseline controls. Substrate hydrolysis was monitored every 5 minutes for a total of 30 minutes. Substrate hydrolysis in the absence of inhibitor was linear for up to 15 minutes.
# Inhibition of calpain I activity was calculated as the percent decrease in the rate of substrate hydrolysis in the presence of inhibitor relative to the rate in its absence. Comparison between the inhibited and control rates was made within the linear range for substrate hydrolysis. The IC50 S of inhibitors (concentration yielding 50% inhibition) were determined from the percent decrease in rates of substrate hydrolysis in the presence of five to seven different concentrations of the test compound. The results were plotted as percent inhibition versus log inhibitor concentration, and the IC50 was calculated by fitting the data to the four-parameter logistic equation shown below using the program GraphPad Prism (GraphPad Software, Inc., San Diego, Calif.).
# The parameters a, b, c, and d are defined as follows: a is % inhibition in the absence of inhibitor, b is the slope, c is the IC50, and d is the % inhibition at an infinite concentration of inhibitor.
inhibition at 10 µM (Tables 2-4),"IC50 (Tables 2-4, pH 7.5)",SMILES,further results
88%,–,O=C(NCCNS(=O)(=O)c1cccc([N+](=O)[O-])c1)C(=O)C(Cc1ccccc1)NC(=O)c1cc(C#Cc2ccccc2)nc2ccccc12 (centres unmarked) [Example 78],–
–,56 nM,O=C(NCCNS(=O)(=O)c1cccnc1)C(=O)[C@H](Cc1ccccc1)NC(=O)c1cc(C#Cc2ccccc2)nc2ccccc12 [Example 87],–
–,130 nM,O=C(NCCNS(=O)(=O)c1cccc2cccnc12)C(=O)C(Cc1ccccc1)NC(=O)c1cc(C#Cc2ccccc2)nc2ccccc12 (centres unmarked) [Example 89],–
–,76 nM,O=C(NCCNS(=O)(=O)c1cccs1)C(=O)C(Cc1ccccc1)NC(=O)c1cc(C#Cc2ccccc2)nc2ccccc12 (centres unmarked) [Example 90],–
–,42 nM,O=C(NCCNS(=O)(=O)C=Cc1ccccc1)C(=O)C(Cc1ccccc1)NC(=O)c1cc(C#Cc2ccccc2)nc2ccccc12 (centres unmarked) [Example 91],–
–,94 nM,O=C(NCCNS(=O)(=O)Cc1ccccc1)C(=O)C(Cc1ccccc1)NC(=O)c1cc(C#Cc2ccccc2)nc2ccccc12 (centres unmarked) [Example 92],–
–,180 nM,CS(=O)(=O)NCCNC(=O)C(=O)C(Cc1ccccc1)NC(=O)c1cc(C#Cc2ccccc2)nc2ccccc12 (centres unmarked) [Example 93],–
–,141 nM,CN(C)S(=O)(=O)NCCNC(=O)C(=O)C(Cc1ccccc1)NC(=O)c1cc(C#Cc2ccccc2)nc2ccccc12 (centres unmarked) [Example 94],–
–,43 nM,O=C(NCCNS(=O)(=O)c1ccccc1)C(=O)C(Cc1ccccc1)NC(=O)c1cc(C#Cc2ccccc2)nc2ccccc12 (centres unmarked) [Example 95],–
100%,–,CC(C)(C)OC(=O)NCCCNC(=O)C(=O)C(Cc1ccccc1)NC(=O)c1cc(C#Cc2ccccc2)nc2ccccc12 (centres unmarked) [Example 97],–
–,126 nM,O=C(NCCCNC(=O)C(=O)C(Cc1ccccc1)NC(=O)c1cc(C#Cc2ccccc2)nc2ccccc12)Nc1ccccc1 (centres unmarked) [Example 98],–
–,130 nM,CS(=O)(=O)NCCCNC(=O)C(=O)C(Cc1ccccc1)NC(=O)c1cc(C#Cc2ccccc2)nc2ccccc12 (centres unmarked) [Example 99],–
84%,–,O=C(NCCCCCCNS(=O)(=O)c1cccc2c(Cl)cccc12)C(=O)C(Cc1ccccc1)NC(=O)c1cc(C#Cc2ccccc2)nc2ccccc12 (centres unmarked) [Example 101],–
–,128 nM,O=C(NOCCNS(=O)(=O)c1ccccc1)C(=O)C(Cc1ccccc1)NC(=O)c1cc(C#Cc2ccccc2)nc2ccccc12 (centres unmarked) [Example 105],–
97%,–,COC(=O)C(CCCCNC(=O)C(=O)C(Cc1ccccc1)NC(=O)c1cc(C#Cc2ccccc2)nc2ccccc12)NC(=O)OC(C)(C)C (centres unmarked) [Example 106],–
93%,–,CC(C)(C)OC(=O)CCNC(=O)C(=O)C(Cc1ccccc1)NC(=O)c1cc(C#Cc2ccccc2)nc2ccccc12 (centres unmarked) [Example 107],–
94%,–,O=C(NCCNC(=O)[C@@H]1CCCN1S(=O)(=O)c1ccccc1)C(=O)C(Cc1ccccc1)NC(=O)c1cc(C#Cc2ccccc2)nc2ccccc12 (some centres unmarked) [Example 108],–
–,655 nM,COC(=O)C(Cc1ccccc1)NC(=O)C(=O)C(Cc1ccccc1)NC(=O)c1cc(C#Cc2ccccc2)nc2ccccc12 (centres unmarked) [Example 109],–
43%,–,CN(C)NC(=O)C(=O)C(Cc1ccccc1)NC(=O)c1cc(C#Cc2ccccc2)nc2ccccc12 (centres unmarked) [Example 110],–
95%,–,C=C(C)C(=O)OCCNC(=O)C(=O)C(Cc1ccccc1)NC(=O)c1cc(C#Cc2ccccc2)nc2ccccc12 (centres unmarked) [Example 111],–
95%,–,COCCNC(=O)C(=O)C(CC(C)C)NC(=O)c1cc(C#Cc2ccccc2)nc2ccccc12 (centres unmarked) [Example 112],–
92%,–,COC(CNC(=O)C(=O)C(CC(C)C)NC(=O)c1cc(C#Cc2ccccc2)nc2ccccc12)OC (centres unmarked) [Example 113],–

inhibition at 10 µM (Tables 2-4),"IC50 (Tables 2-4, pH 7.5)",SMILES,further results
93%,–,CC(C)CC(NC(=O)c1cc(C#Cc2ccccc2)nc2ccccc12)C(=O)C(=O)NCCOCCO (centres unmarked) [Example 114],–
100%,–,CC(C)CC(NC(=O)c1cc(C#Cc2ccccc2)nc2ccccc12)C(=O)C(=O)NCCNC(=O)OCc1ccccc1 (centres unmarked) [Example 115],–
89%,–,CC(C)CC(NC(=O)c1cc(C#Cc2ccccc2)nc2ccccc12)C(=O)C(=O)NCCNC(=O)Nc1ccccc1 (centres unmarked) [Example 116],–
82%,–,CC(C)CC(NC(=O)c1cc(C#Cc2ccccc2)nc2ccccc12)C(=O)C(=O)NCCNS(=O)(=O)c1ccccc1 (centres unmarked) [Example 117],–
80%,–,CC(C)CC(NC(=O)c1cc(C#Cc2ccccc2)nc2ccccc12)C(=O)C(=O)NCCCNS(=O)(=O)c1ccccc1 (centres unmarked) [Example 119],–
–,105 nM,CCCCNC(=O)C(=O)C(Cc1ccccc1)NC(=O)c1cc(C=Cc2ccccc2)nc2ccccc12 (centres unmarked) [Example 130],–
99%,–,O=C(NCCNS(=O)(=O)c1ccccc1)C(=O)C(Cc1ccccc1)NC(=O)c1cc(-c2cccnc2)nc2ccccc12 (centres unmarked) [Example 136],–
–,16 nM,O=C(NCCNS(=O)(=O)c1ccccc1)C(=O)C(Cc1ccccc1)NC(=O)c1cc(CCc2ccccc2)nc2ccccc12 (centres unmarked) [Example 137],–
–,14 nM,O=C(NCCNS(=O)(=O)c1ccc(-c2ccccn2)s1)C(=O)[C@H](Cc1ccccc1)NC(=O)c1cc(Cl)nc2ccccc12 [Example 144],–
–,71 nM,O=C(NCCNS(=O)(=O)c1ccc(-c2ccccn2)s1)C(=O)C(Cc1ccccc1)NC(=O)c1cc(C2CC2)nc2ccccc12 (centres unmarked) [Example 145],–
–,85 nM,O=C(NCCNS(=O)(=O)c1ccc(-c2ccccn2)s1)C(=O)C(Cc1ccccc1)NC(=O)c1cc(-c2cccs2)nc2ccccc12 (centres unmarked) [Example 146],–
–,81 nM,O=C(NCCS(=O)(=O)Nc1ccccc1)C(=O)C(Cc1ccccc1)NC(=O)c1cc(Cl)nc2ccccc12 (centres unmarked) [Example 147],–
–,–,CCCCC(NC(=O)c1cc(Cl)nc2ccccc12)C(=O)C(=O)NCCNS(=O)(=O)c1ccc([N+](=O)[O-])cc1 (centres unmarked) [Example 149],"IC50 (Table 5, head prints no unit): 23 nM"
–,–,CCCC(NC(=O)c1cc(Cl)nc2ccccc12)C(=O)C(=O)NCCNS(=O)(=O)c1ccc([N+](=O)[O-])cc1 (centres unmarked) [Example 150],Calpain I IC50 ** (value in parentheses: % inhibition) (Table 5): 78%
–,–,CCCCC(NC(=O)c1cc(Cl)nc2ccccc12)C(=O)C(=O)NCCNS(=O)(=O)c1ccc(Cl)c(Cl)c1 (centres unmarked) [Example 151],"IC50 (Table 5, head prints no unit): 217 nM"
–,–,CCCC(NC(=O)c1cc(Cl)nc2ccccc12)C(=O)C(=O)NCCNS(=O)(=O)c1ccc(Cl)c(Cl)c1 (centres unmarked) [Example 152],"IC50 (Table 5, head prints no unit): 325 nM"
–,–,O=C(NCCNS(=O)(=O)c1ccccc1)C(=O)C(Cc1ccccc1)NC(=O)c1nc(-c2ccccc2)nc2ccccc12 (centres unmarked) [Example 153],Calpain I IC50 ** (value in parentheses: % inhibition) (Table 5): 95%
–,–,O=C(NCCNS(=O)(=O)c1ccc(-c2ccccn2)s1)C(=O)C(Cc1ccccc1)NC(=O)c1nc(-c2ccccc2)nc2ccccc12 (centres unmarked) [Example 154],"IC50 (Table 5, head prints no unit): 83 nM"
–,–,CCCCC(NC(=O)c1cc(Cl)nc2ccccc12)C(=O)C(=O)NCCNS(=O)(=O)c1ccc(-c2ccccn2)s1 (centres unmarked) [Example 155],"IC50 (Table 5, head prints no unit): 31 nM"
–,–,CCCC(NC(=O)c1cc(Cl)nc2ccccc12)C(=O)C(=O)NCCNS(=O)(=O)c1ccc(-c2ccccn2)s1 (centres unmarked) [Example 156],"IC50 (Table 5, head prints no unit): 43 nM"
–,–,COCC(NC(=O)c1cc(Cl)nc2ccccc12)C(=O)C(=O)NCCNS(=O)(=O)c1ccc(-c2ccccn2)s1 (centres unmarked) [Example 157],"IC50 (Table 5, head prints no unit): 61 nM"
–,–,COCC(NC(=O)c1cc(Cl)nc2ccccc12)C(=O)C(=O)NCCNS(=O)(=O)c1ccccc1 (centres unmarked) [Example 158],Calpain I IC50 ** (value in parentheses: % inhibition) (Table 5): 94%
